Our source for the EC50 and tension reduction values is patent publication US20090004121A1, “Combination of picotamide with nafronyl” (priority 2007, published 2009).

As usually defined, the EC50 is the concentration at which the effect is half-maximal.

What all share (format): cell-based
One test has as its system Thoracic aortic rings. The experiment in a line: Contracting effect on rat aortic rings (organ bath). The note with it: mean ±S.E.M. The method, then: Thoracic aortic rings obtained from male Wistar rats are carefully cleaned of connective tissue. The aortic rings are suspended in the isolated muscle bath (20 mL). Each segment is suspended under a tension of 1 g in Krebs buffer (NaCl 118 mM, KCl 5.4 mM, CaCl2 2.5 mM, MgCl2.6H2O 1.5 mM, NaHCO3 25 mM, NaH2PO4 1.2 mM, glucose 10 mM; pH 7.4) which was bubbled with O2 95%/CO2 5% at 37° C. in 20 mL organ baths (EMKA Technologies, Paris, France). The muscle tension of aortic rings is isometrically recorded with a force-displacement transducer IT1 (EMKA Technologies, Paris, France). The buffer is renewed at 15 min intervals during the equilibrium period (40 min) before exposing the rings to the TXA2-mimetic U-46619 (20 nM), 8-iso-prostaglandin F2α (1 μM) or serotonin (5-hydroxy-tryptamine, 5-HT, 2 μM). When a stable tension is obtained (15 min), the compound of interest is added at a cumulative increasing concentration to the bath until the tension returned to the baseline value. Tension is recorded with a specific data acquisition program (IOX 1.445, EMKA Technologies, Paris, France). The EC50 value of each drug is assessed for at least 6 concentration-response curves obtained from separate preparations. EC50 is expressed as the concentration which reduces 50% of the tension induced by the contracting agent. The results are expressed as mean ±S.E.M. Nafronyl oxalate was obtained from Sigma-Aldrich; picotamide monohydrate was obtained from the European Directory of Quality of Medicines. […] These values are in line with results obtained in previous studies (S. W. Watts and J. M. Thompson, J Pharmacol Exp Ther 309:165-172, 2004; M. Lohn et al., FASEB J 16:1057-63, 2002).

Test [1] deals with Thoracic aortic rings precontracted with serotonin. In words: Relaxation of rat aortic rings using serotonin 2 μM as contracting agent. The following applies: for EC50: Rattus norvegicus, read-out: EC50 relaxing effect. The method, then: (§1) Thoracic aortic rings obtained from male Wistar rats are carefully cleaned of connective tissue. The aortic rings are suspended in the isolated muscle bath (20 mL). Each segment is suspended under a tension of 1 g in Krebs buffer (NaCl 118 mM, KCl 5.4 mM, CaCl2 2.5 mM, MgCl2.6H2O 1.5 mM, NaHCO3 25 mM, NaH2PO4 1.2 mM, glucose 10 mM; pH 7.4) which was bubbled with O2 95%/CO2 5% at 37° C. in 20 mL organ baths (EMKA Technologies, Paris, France). The muscle tension of aortic rings is isometrically recorded with a force-displacement transducer IT1 (EMKA Technologies, Paris, France). The buffer is renewed at 15 min intervals during the equilibrium period (40 min) before exposing the rings to the TXA2-mimetic U-46619 (20 nM), 8-iso-prostaglandin F2α (1 μM) or serotonin (5-hydroxy-tryptamine, 5-HT, 2 μM). When a stable tension is obtained (15 min), the compound of interest is added at a cumulative increasing concentration to the bath until the tension returned to the baseline value. Tension is recorded with a specific data acquisition program (IOX 1.445, EMKA Technologies, Paris, France). The EC50 value of each drug is assessed for at least 6 concentration-response curves obtained from separate preparations. EC50 is expressed as the concentration which reduces 50% of the tension induced by the contracting agent. The results are expressed as mean ±S.E.M. Nafronyl oxalate was obtained from Sigma-Aldrich; picotamide monohydrate was obtained from the European Directory of Quality of Medicines. Nafronyl oxalate was confirmed to be a potent serotonin antagonist with an EC50 1.54·10^−8 M for its relaxing effect.

Test [2] deals with rat aorta rings pretreated with 8-iso-prostaglandin F2α. In words: Relaxation of rat aortic rings using 8-iso-prostaglandin F2α 1 μM as contracting agent. The method, then: as §1, with “Relaxation experiments on aortas precontracted” for “Nafronyl oxalate was confirmed to be a potent serotonin antagonist”, “8-iso-prostaglandin F2α 1 μM were done with picotamide monohydrate alone in increasing concentrations of 10^−8 M, 10^−7 M, 10^−6 M, 10^−5 M, 10^−4 M, as well as with the same concentrations of picotamide monohydrate in the presence of 1 μM nafronyl.” for “an EC50 1.54·10^−8 M for its relaxing effect.”

Counter-ions that a name gives are not always drawn. Like-named read-outs stand apart in the source and are kept apart here.

Consider `CCCCC[C@H](O)/C=C/[C@@H]1[C@@H](C/C=C\CCCC(=O)O)[C@H]2CO[C@@H]1C2` [U-46619], for which the EC50 in the test with Thoracic aortic rings stood at 12.2 ± 2.68 nM. Take `COc1ccc(C(=O)NCc2cccnc2)cc1C(=O)NCc1cccnc1` [Picotamide monohydrate, N,N′-bis-(3-picolyl)-4-methoxy-isophthalamide]: the tension reduction in test [1] (10^−5 M picotamide) was found to be 30%. Further, the EC50 was found to be 16400 nM in test [2] (drug alone) and 2340 nM in test [2] (together with 10^−6 M nafronyl oxalate). For the molecule `CCN(CC)CCOC(=O)C(Cc1cccc2ccccc12)CC1CCCO1` (stereo not drawn) [Nafronyl oxalate, 2-diethylaminoethyl 2-(naphthalen-1-ylmethyl)-3-(oxolan-2-yl)propanoate], the 50% effective concentration (EC50) in test [1] (drug alone) was 15.4 nM; in test [1] (in the presence of 10^−6 M picotamide), 13.3 nM; in test [2] (drug alone), 3880 nM. In the test on Thoracic aortic rings, `NCCc1c[nH]c2ccc(O)cc12` [serotonin, 5-hydroxy-tryptamine] had an EC50 of 980 ± 90 nM. `CCCCC[C@H](O)/C=C/[C@@H]1[C@H](C/C=C\CCCC(=O)O)[C@@H](O)C[C@H]1O` [8-iso-PGF2α, 8-iso-prostaglandin F2α] registered an EC50 in the test with Thoracic aortic rings of 1000 ± 100 nM.
